Measurements reported in patent US11214570B2, “Pyrrolopyridine derivative, method for producing same, and use thereof” (ST PHARM CO., LTD., priority 2017, dated 2022).
Read-outs that look alike come from different tables or passages of the source.

How the values were obtained:
HIV-1 Clone 8070_1 = assay: Inhibition of HIV-1 clone 8070_1 (Raltegravir resistance mutant); assay type: cell-based; conditions: Human immunodeficiency virus 1
Protocol: (§1) In order to look into the HIV-1 (Wild/Mutant type) inhibition effects of the compound of the invention, a test for HIV-1 (Wild/Mutant type) inhibition effect was carried out in vitro as follows according to a known method (H. Tanaka et al., J. Med. Chem., 1991, 34, 349). MT-4 cells were used as host cells, and the degree of the compound of the present invention inhibiting cytotoxicity for the virus-infected MT-4 cells was investigated.
(§2) First, MT-4 cells were dispersed in a culture medium at a concentration of 1×10^4cells/well, and HIV-1 was inoculated so that the concentration was 500 TCI50 (concentration at which 50% of the cells are infected)/well. Immediately after the inoculation, the cell dispersion was transferred in 100 μL each to a flat microtiter plate in which a sample of the compound of the invention was placed. The sample was incubated for approximately for 4 to 5 days at […], and the virus inhibition effect was determined with an MTT method. […] As a comparative compound, azidothymidine (AZT), Raltegravir, Dolutegravir, and Elvitegravir were used.

HIV-1 Clone 8070_2 = assay: Inhibition of HIV-1 clone 8070_2 (Raltegravir resistance mutant); assay type: cell-based; conditions: Human immunodeficiency virus 1
Protocol: as §1, §2

HIV-1 NL4-3 wt = assay: Inhibition of HIV-1 NL4-3 wt; assay type: cell-based; conditions: Human immunodeficiency virus 1, NL43
Protocol: as §1, §2

HIV-1 Clone 4736_2 = assay: microbe, parasite or virus in culture; assay type: cell-based; conditions: Human immunodeficiency virus 1
Protocol: as §1, §2

HIV-1 Clone 4736_4 = assay: Inhibition of HIV-1 clone 4736_4 (Raltegravir resistance mutant); assay type: cell-based; conditions: Human immunodeficiency virus 1
Protocol: as §1, §2

HIV-1 Clone 1556_1 = assay: Inhibition of HIV-1 clone 1556_1 (Raltegravir resistance mutant); assay type: cell-based; conditions: Human immunodeficiency virus 1
Protocol: as §1, §2

Wild Type HIV-1(IIIB) = assay: Inhibition of wild type HIV-1(IIIB) in MT-4 cells (MTT method); assay type: cell-based
Protocol: as §1, §2

[1] = Liver microsomal stability, rat; assay type: in vitro ADME; conditions: rat liver microsome, NADPH
Protocol: (§3) The in vitro metabolic stability test was conducted for the compound of Example 1 of the present invention. In order to confirm in vitro metabolic stability, liver microsomal half-life of the compound was observed. A drug compound was reacted with NADPH using a species-specific (rat, dog, monkey, and human) liver microsome containing various metabolizing enzymes, and then half-life of the drug was determined by quantifying with LC-MS/MS in minutes.

[2] = Liver microsomal stability, dog; assay type: in vitro ADME; conditions: dog liver microsome, NADPH, read-out: Dog liver (T1/2, Min)
Protocol: as §3

[3] = Pharmacokinetics test in male rats; assay type: in vivo, rat
Protocol: Experiments were carried out to detect changes in in vivo kinetics including in vivo absorption, distribution, metabolism and excretion for the compound of Example 1 of the present invention. A tube was inserted into the jugular vein and femoral vein of a rat. A drug was administered into the femoral vein in the case of intravenous administration, and a drug was administered into the oral cavity in the case of oral administration. Blood was collected from the jugular vein at a predetermined time. Dose concentration was 1 mg/kg for intravenous administration, and it was 2 mg/kg for oral administration. After centrifuging blood to separate plasma, the plasma and urine samples were pretreated with an appropriate organic solvent, and then concentration of the drug was analyzed with LC-MS/MS. From the data of the drug concentration in blood relative to time which were analyzed after oral and intravenous administrations, the noncompartmental pharmacokinetic parameter was calculated with WinNonlin (Pharsight, USA).

hERG K+ channel = target: T1, hERG K+ channel (Homo sapiens, UniProt Q12809); assay: hERG K+ channel assay (Patch Clamp Recording Method); assay type: cell-based; conditions: HERG-HEK293, automated planar patch clamp
T1 construct: expressed in transfected cells; host or cells: HERG-HEK293
Protocol: hERG K^+ channel assay was carried out to predict cardiotoxicity for the compound of the invention. The hERG activity of the compound was measured with HERG-HEK293 using automated planar patch clamp [PatchXpress 7000A]. This method is the most well-known method for studying ion channel, in which the flow of ions through the channel is directly measured with a voltage clamp.

[4] = Liver microsomal stability, monkey; assay type: in vitro ADME; conditions: monkey liver microsome, NADPH, read-out: Monkey liver (T1/2, Min)
Protocol: as §3

[5] = Liver microsomal stability, human; assay type: in vitro ADME; conditions: human liver microsome, NADPH
Protocol: as §3

[6] = tested on: CYP1A2, CYP2C9, CYP2D6, CYP3A4 and CYPC19; assay: CYP450 inhibition test (five enzymes, text summary); assay type: in vitro ADME; conditions: human liver microsomes, 10 μM
Protocol: The CYP450 inhibition test was carried out for the compound of the present invention. To human liver microsomes (0.25 mg/ml), 0.1 M phosphate buffer (pH 7.4) and drug cocktails of five drug-metabolizing enzymes (CYP1A2, CYP2C9, CYP2D6, CYP3A4 and CYPC19) (Cocktail A: Phenacetin 50 μM, S-mephenytoin 100 μM, dextromethorphan 5 nM, midazolam 2.5 μM, Cocktail B: tolbutamide 100 μM), the compound of Example 1 was added at concentrations of 0 and 10 μM, respectively, and then cultured at 37° C. for 15 minutes. Subsequently, in order to terminate the reaction, an acetonitrile solution containing an internal standard (chloropropamide) was added thereto, and resulting mixture was centrifuged (14,000 rpm, 4° C.) for 5 minutes. Supernatant was then injected into LC/MS/MS system and the metabolites of the substrate drugs were simultaneously analyzed to thereby evaluate activities of the test compound inhibiting the drug-metabolizing enzymes.

[7] = Human immunodeficiency virus 1, IIIB, MT4, read-out: EC50: concentration of 50% inhibition of HIV infection

T1 sequence (Q12809 whole entry): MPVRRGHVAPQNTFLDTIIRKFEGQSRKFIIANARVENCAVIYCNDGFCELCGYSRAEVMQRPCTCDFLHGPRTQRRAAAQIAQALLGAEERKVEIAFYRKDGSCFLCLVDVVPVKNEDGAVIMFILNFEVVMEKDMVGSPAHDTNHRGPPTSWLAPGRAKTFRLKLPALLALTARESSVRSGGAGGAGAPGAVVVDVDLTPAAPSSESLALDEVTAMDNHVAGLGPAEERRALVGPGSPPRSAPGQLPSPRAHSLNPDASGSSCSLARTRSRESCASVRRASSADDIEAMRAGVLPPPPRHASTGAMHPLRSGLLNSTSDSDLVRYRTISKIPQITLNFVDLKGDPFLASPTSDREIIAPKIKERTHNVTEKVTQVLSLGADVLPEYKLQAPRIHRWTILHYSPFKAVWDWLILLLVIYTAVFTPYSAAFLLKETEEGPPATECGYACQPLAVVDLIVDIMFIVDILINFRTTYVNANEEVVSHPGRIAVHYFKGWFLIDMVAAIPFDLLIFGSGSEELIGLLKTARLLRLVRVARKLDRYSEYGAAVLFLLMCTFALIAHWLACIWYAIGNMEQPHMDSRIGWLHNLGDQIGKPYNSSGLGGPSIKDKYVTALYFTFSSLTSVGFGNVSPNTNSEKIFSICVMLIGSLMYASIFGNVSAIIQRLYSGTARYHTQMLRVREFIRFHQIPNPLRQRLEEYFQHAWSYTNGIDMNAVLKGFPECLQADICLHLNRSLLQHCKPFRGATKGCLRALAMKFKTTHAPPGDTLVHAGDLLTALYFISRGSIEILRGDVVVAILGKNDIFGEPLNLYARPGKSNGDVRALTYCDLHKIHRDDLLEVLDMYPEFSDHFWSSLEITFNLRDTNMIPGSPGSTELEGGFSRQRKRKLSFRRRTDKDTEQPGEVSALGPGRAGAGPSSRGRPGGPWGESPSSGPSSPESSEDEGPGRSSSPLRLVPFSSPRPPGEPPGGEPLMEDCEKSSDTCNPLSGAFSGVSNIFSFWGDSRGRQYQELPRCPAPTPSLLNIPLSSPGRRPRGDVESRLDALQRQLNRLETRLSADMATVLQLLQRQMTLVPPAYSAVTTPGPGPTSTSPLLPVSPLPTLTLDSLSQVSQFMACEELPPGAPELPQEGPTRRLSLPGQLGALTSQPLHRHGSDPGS

Structure (SMILES) | IC50 (HIV-1 Clone 8070_1) [nM] | IC50 (HIV-1 Clone 8070_2) [nM] | IC50 (HIV-1 Clone 4736_2) [nM] | IC50 (HIV-1 Clone 4736_4) [nM] | IC50 (HIV-1 Clone 1556_1) [nM] | IC50 (HIV-1 NL4-3 wt) [nM] | EC50 (Wild Type HIV-1(IIIB); [7]) [nM] | also measured
C[C@@H]1CCO[C@H]2Cn3cc(C(=O)NCc4ccc(F)cc4F)c(=O)c(O)c3C(=O)N12 [Dolutegravir] | 8.5 | 4.4 | 3.5 | 3 | 3.2 | – | – | IC50 (HIV-1 NL4-3 wt; NL4-3 wt, read-out: IC50): 3.2 nM
COc1cc2c(cc1Cc1cccc(Cl)c1F)c(=O)c(C(=O)O)cn2[C@H](CO)C(C)C [Elvitegravir] | > 10000 | – | 410 | 320 | 276 | < 0.1 | – | –
Cc1nc2c(c(C)c(C)n2Cc2cnn(C)c2)c(-c2ccc(Cl)cc2)c1[C@H](OC(C)(C)C)C(=O)O [Example 1] | 0.9 | 3.4 | 1.1 | 3.4 | 3.4 | 3.6 | 3.23 | half-life ([1]; liver microsomes, read-out: Rat liver (T1/2, Min)): > 145 min; half-life ([2]; liver microsomes): > 145 min; F ([3]; PO, 2 mg/kg): 71.8%; AUC(0-inf) ([3]; rat, plasma, IV, 1 mg/kg): 6.51 µM·h; AUC(0-t) ([3]; rat, plasma, IV, 1 mg/kg): 6.08 µM·h; clearance ([3]; rat, plasma, IV, 1 mg/kg): 5.38 mL/min/kg; half-life ([3]; rat, plasma, IV, 1 mg/kg): 8.63 h; Vd ([3]; rat, plasma, IV, 1 mg/kg, read-out: Vss): 1.77 L/kg; AUC(0-inf) ([3]; rat, plasma, PO, 2 mg/kg): 10.4 µM·h; AUC(0-t) ([3]; rat, plasma, PO, 2 mg/kg): 8.73 µM·h; Cmax ([3]; rat, plasma, PO, 2 mg/kg): 914 nM; Tmax ([3]; rat, plasma, PO, 2 mg/kg): 3.2 h; half-life ([3]; rat, plasma, PO, 2 mg/kg): 8.66 h; IC50 (hERG K+ channel): 66700 nM; half-life ([4]; liver microsomes): 133 min; half-life ([5]; liver microsomes, read-out: Human liver (T1/2, Min)): 136 min; inhibitory activity against five CYP enzymes [6]: does not exhibit an inhibitory activity
Cc1nn(C)c(Cl)c1Cn1c(C)c(C)c2c(-c3ccc(Cl)cc3)c([C@H](OC(C)(C)C)C(=O)O)c(C)nc21 [Example 2, (S)-2-(tert-butoxy)-2-(1-((5-chloro-1,3-dimethyl-1H-pyrazol-4-yl)methyl)-4-(4-chlorophenyl)-2,3,6-trimethyl-1H-pyrrolo[2,3-b]pyridin-5-yl) acetic acid] | – | – | – | – | – | – | – | EC50 (Wild Type HIV-1(IIIB); Human immunodeficiency virus 1, MT4, Wild Type HIV-1(IIIB) in MT-4 Cells, MTT method, read-out: EC50: concentration of 50% inhibition of HIV infection): 25.7 nM
Cc1nnc(C(=O)NC(C)(C)c2nc(C(=O)NCc3ccc(F)cc3)c(O)c(=O)n2C)o1 [Raltegravir] | 4320 | 3840 | 351 | 351 | 3760 | 4.6 | 5.85 | –
C[C@]12CC[C@H]3[C@@H](CCC4=CC(=O)CC[C@@]43C)[C@@H]1CC[C@@H]2O [Testosterone, reference compound] | – | – | – | – | – | – | – | Rat liver (T1/2, Min) [1]: 0.7 min; half-life ([2]; microsomes): 23.6 min; half-life ([4]; microsomes): 13 min; Human liver (T1/2, Min) [5]: 19.7 min
